In ChEMBL document CHEMBL4431357, “Discovery of a novel class of highly potent inhibitors of the p53-MDM2 interaction by structure-based design starting from a conformational argument” (Bioorg Med Chem Lett, 2016) one finds IC50 data, which are given here for 5 molecules.

The target in this assay is Tumour suppressor p53/oncoprotein Mdm2 (Homo sapiens, UniProt Q00987). As to the kind of experiment: Inhibition of C-terminal biotin-tagged streptavidin labelled human MDM2 ( 2 to 188 residues)/Cy5-labelled p53 (18 to 26 residues)(unknown origin) interaction after 15 mins by TR-FRET assay. The format is protein assay.
Tumour suppressor p53/oncoprotein Mdm2, sequence (P04637 whole entry, the tested form may be a part): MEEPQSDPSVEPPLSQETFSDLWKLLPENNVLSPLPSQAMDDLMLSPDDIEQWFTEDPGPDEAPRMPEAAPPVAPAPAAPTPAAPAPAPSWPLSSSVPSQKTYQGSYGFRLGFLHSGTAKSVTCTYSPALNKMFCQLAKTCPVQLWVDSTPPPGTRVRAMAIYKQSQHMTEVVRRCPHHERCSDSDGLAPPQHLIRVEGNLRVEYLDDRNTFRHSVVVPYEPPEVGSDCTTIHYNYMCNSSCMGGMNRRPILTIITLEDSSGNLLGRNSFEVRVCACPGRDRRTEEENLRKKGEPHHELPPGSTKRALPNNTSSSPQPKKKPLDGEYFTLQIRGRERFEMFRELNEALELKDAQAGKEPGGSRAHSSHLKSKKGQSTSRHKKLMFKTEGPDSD
Tumour suppressor p53/oncoprotein Mdm2, sequence (Q00987 whole entry, the tested form may be a part): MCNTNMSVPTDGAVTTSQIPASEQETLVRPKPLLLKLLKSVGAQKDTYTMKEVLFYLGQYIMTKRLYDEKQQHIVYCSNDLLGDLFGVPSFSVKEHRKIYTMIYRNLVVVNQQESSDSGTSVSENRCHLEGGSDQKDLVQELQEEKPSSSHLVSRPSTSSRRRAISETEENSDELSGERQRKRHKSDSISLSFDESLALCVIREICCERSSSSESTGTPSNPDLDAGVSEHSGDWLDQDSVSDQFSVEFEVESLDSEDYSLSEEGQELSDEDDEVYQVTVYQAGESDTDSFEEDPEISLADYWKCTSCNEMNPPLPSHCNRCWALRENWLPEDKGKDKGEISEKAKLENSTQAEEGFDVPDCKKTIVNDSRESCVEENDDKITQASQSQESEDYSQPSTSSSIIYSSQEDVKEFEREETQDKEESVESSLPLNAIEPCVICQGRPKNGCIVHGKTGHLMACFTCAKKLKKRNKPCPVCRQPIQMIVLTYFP
For `Cc1n[nH]c2c1C(c1ccc(Cl)cc1)N(c1cccc(Cl)c1)C2=O` (racemic), half-maximal inhibition (IC50) required 350 nM.

As to `Cc1ccc(N2C(=O)c3[nH]nc(C)c3C2c2ccc(Cl)cc2)cc1` (stereo not given), the IC50 (usually the point on the concentration scale where inhibition reaches its midpoint) is 1500 nM.

Consider `CC(C)c1n[nH]c2c1C(c1ccc(Cl)cc1)N(c1cccc(Cl)c1)C2=O` (racemic), for which the IC50 worked out at 32 nM.

In turn, `CC(C)(C)c1n[nH]c2c1C(c1ccc(Cl)cc1)N(c1cccc(Cl)c1)C2=O` (racemic) registered an IC50 of 18 nM.

As for `Cc1cc(Cl)ccc1C1c2c(C(C)C)n[nH]c2C(=O)N1c1cc(Cl)ccc1C` (racemic), the IC50 was found to be 4.2 nM.
